{
  "source": "paper PMC6099232",
  "about": "“High V‐PPase activity is beneficial under high salt loads, but detrimental without salinity” (The New Phytologist, 2018)",
  "key": {"IPP1": {"target": "T1, IPP1 (Saccharomyces cerevisiae, UniProt P00817)", "T1 construct": "soluble PPase, cDNA under ubiquitin promoter in pCambia2200, transiently overexpressed in N. benthamiana leaves", "T1 sequence (P00817 2-287)": "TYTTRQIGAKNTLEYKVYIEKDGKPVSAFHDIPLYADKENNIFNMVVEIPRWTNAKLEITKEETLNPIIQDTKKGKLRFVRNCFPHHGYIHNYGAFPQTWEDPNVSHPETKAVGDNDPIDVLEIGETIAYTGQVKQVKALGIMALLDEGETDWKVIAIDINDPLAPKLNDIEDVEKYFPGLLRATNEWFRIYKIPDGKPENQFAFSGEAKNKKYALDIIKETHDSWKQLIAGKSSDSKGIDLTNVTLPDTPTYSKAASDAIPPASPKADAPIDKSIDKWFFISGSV", "test": "PPi hydrolysis activity of leaf protein extract", "format": "biochemical", "details": "activity compared with control"}, "NbVHP2": {"target": "T2, NbVHP2 (Nicotiana benthamiana, UniProt A0A238MN04)", "T2 construct": "gene NbPPA1.1; full-length cDNA, untagged, ubiquitin promoter in pCambia2200 with separate free eGFP; transient overexpression in N. benthamiana mesophyll; vacuoles also hold endogenous NbVHP1/2", "T2 sequence (A0A238MN04 1-766)": "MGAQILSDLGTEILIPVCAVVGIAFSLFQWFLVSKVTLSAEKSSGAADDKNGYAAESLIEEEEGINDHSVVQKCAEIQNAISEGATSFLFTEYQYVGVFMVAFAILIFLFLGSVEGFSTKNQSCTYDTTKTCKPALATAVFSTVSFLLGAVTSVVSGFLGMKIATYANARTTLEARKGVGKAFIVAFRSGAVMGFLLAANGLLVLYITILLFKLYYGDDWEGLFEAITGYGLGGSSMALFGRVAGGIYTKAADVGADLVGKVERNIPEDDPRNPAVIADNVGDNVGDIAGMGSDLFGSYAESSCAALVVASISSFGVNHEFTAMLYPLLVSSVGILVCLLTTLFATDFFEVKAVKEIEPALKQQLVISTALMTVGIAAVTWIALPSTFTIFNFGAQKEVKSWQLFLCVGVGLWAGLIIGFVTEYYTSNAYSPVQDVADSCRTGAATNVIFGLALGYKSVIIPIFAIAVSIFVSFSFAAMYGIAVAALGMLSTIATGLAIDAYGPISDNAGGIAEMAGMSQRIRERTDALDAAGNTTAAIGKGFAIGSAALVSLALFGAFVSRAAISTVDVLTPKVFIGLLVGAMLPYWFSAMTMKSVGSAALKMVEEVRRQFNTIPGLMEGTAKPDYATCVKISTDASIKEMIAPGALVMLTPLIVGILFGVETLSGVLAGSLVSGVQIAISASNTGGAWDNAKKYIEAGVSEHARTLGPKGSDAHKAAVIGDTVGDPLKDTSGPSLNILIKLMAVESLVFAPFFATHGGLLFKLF", "test": "whole-vacuole patch clamp, PPi-induced proton pump current", "format": "biochemical", "details": "150 μM PPi, 0 mV; 5 mM MgCl2, 100 mM K-gluconate, 0.1 mM CaCl2, pH 7.5; endogenous NbVHP background"}, "[1]": {"substrate": "O=P(O)(O)OP(=O)(O)O", "test": "whole-vacuole patch clamp, PPi-induced proton pump current", "format": "biochemical, Arabidopsis thaliana", "details": "0 mV, 5 mM MgCl2, 100 mM K-gluconate, 0.1 mM CaCl2, pH 7.5, about one-third of current from endogenous NbVHP1/2"}, "[2]": {"substrate": "O=P(O)(O)OP(=O)(O)O", "test": "whole-vacuole patch clamp, PPi-induced proton pump current", "format": "biochemical, Nicotiana benthamiana", "details": "0 mV, cytosolic pH 7.5, global fit of luminal pH 7.5 and 5.5, 5 mM MgCl2, 100 mM K-gluconate, 0.1 mM CaCl2, endogenous NbVHP background"}},
  "data": [
    {"molecule": "O=P(O)(O)OP(=O)(O)O", "note": "[PPi, pyrophosphate]", "values": [
      {"measurement": "PPi hydrolysis activity of leaf protein extract", "setting": "IPP1", "value": "IPP1‐transformed N. benthamiana leaves exhibited a hydrolytic PPi activity"},
      {"measurement": "whole-vacuole patch clamp, PPi-induced proton pump current", "setting": "NbVHP2", "value": "almost four times higher in vacuoles from NbVHP1‐ or NbVHP2‐overexpressing mesophyll cells"}
    ]},
    {"molecule": "AtVHP1 (Arabidopsis thaliana) (protein, untagged cDNA, ubiquitin promoter in pCambia2200 with separate free eGFP; transient overexpression in N. benthamiana mesophyll; about one-third of the current from endogenous NbVHP1/2) MVAPALLPELWTEILVPICAVIGIAFSLFQWYVVSRVKLTSDLGASSSGGANNGKNGYGDYLIEEEEGVNDQSVVAKCAEIQTAISEGATSFLFTEYKYVGVFMIFFAAVIFVFLGSVEGFSTDNKPCTYDTTRTCKPALATAAFSTIAFVLGAVTSVLSGFLGMKIATYANARTTLEARKGVGKAFIVAFRSGAVMGFLLAASGLLVLYITINVFKIYYGDDWEGLFEAITGYGLGGSSMALFGRVGGGIYTKAADVGADLVGKIERNIPEDDPRNPAVIADNVGDNVGDIAGMGSDLFGSYAEASCAALVVASISSFGINHDFTAMCYPLLISSMGILVCLITTLFATDFFEIKLVKEIEPALKNQLIISTVIMTVGIAIVSWVGLPTSFTIFNFGTQKVVKNWQLFLCVCVGLWAGLIIGFVTEYYTSNAYSPVQDVADSCRTGAATNVIFGLALGYKSVIIPIFAIAISIFVSFSFAAMYGVAVAALGMLSTIATGLAIDAYGPISDNAGGIAEMAGMSHRIRERTDALDAAGNTTAAIGKGFAIGSAALVSLALFGAFVSRAGIHTVDVLTPKVIIGLLVGAMLPYWFSAMTMKSVGSAALKMVEEVRRQFNTIPGLMEGTAKPDYATCVKISTDASIKEMIPPGCLVMLTPLIVGFFFGVETLSGVLAGSLVSGVQIAISASNTGGAWDNAKKYIEAGVSEHAKSLGPKGSEPHKAAVIGDTIGDPLKDTSGPSLNILIKLMAVESLVFAPFFATHGGILFKYF", "values": [
      {"measurement": "Km", "setting": "[1]", "value": "75 ± 11", "unit": "µM"}
    ]},
    {"molecule": "NbVHP1 (Nicotiana benthamiana) (protein, full-length cDNA, untagged, ubiquitin promoter in pCambia2200 with separate free eGFP; transient overexpression in N. benthamiana mesophyll; vacuoles also hold endogenous NbVHP1/2; homodimer of c; 80 kDa polypeptide) MGAALLPDLGTEIVIPVCAVIGIVFSLVQWYIVSNVKLTPESSSPSNNGKNGYGDYLIEEEEGINDQNVVVKCAEIQNAISEGATSFLFTEYQYVGIFMIAFAILIFLFLGSVEGFSTKSQPCTYNKEKLCKPALATAIFSTVSFLLGAITSVVSGFLGMKVATYANARTTLEARKGVGKAFIVAFRSGAVMGFLLAANGLLVLYIAINLFKLYYGDDWEGLFEAITGYGLGGSSMALFGRVGGGIYTKAADVGADLVGKVERNIPEDDPRNPAVIADNVGDNVGDIAGMGSDLFGSYAEASCAALVVASISSFGINHEFTAMLYPLLISSMGVLICLITTLFATDFFEIKAVKEIEPALKNQLIISTALMTVGIAIVTWTCLPSSFTIFNFGAQKVVKNWQLFLCVAVGLWAGLIIGFVTEYYTSNTYSPVQDVADSCRTGAATNVIFGLALGYKSVIIPIFAIAIAIFVSFSFAAMYGIAVAALGMLSTIATGLAIDAYGPISDNAGGIAEMAGMSHRIRERTDALDAAGNTTAAIGKGFAIGSAALVSLALFGAFVSRAAITTVDVLTPQVFIGLIVGAMLPYWFSAMTMKSVGSAALKMVEEVRRQFNTIPGLMEGTAKPDYATCVKISTDASIKEMIPPGALVMLTPLIVGIFFGVETLSGVLAGALVSGVQIAISASNTGGAWDNAKKYIEAGASEHARTLGPKGSEPHKAAVIGDTIGDPLKDTSGPSLNILIKLMAVESLVFAPFFATHGGLLFKIF", "values": [
      {"measurement": "Km", "setting": "[2]", "value": "65 ± 9", "unit": "µM"}
    ]}
  ]
}
